Consider 14 compounds from US10995091B2 (Proximagen, LLC, priority 2010, dated 2021).

Broadly, the pIC50 is the negative decadic logarithm of the IC50, by convention in mol/L.

Molecules are shown by their SMILES. pIC50, pKi: −log10 of the molar value.

Assay [1] deals with haematopoietic stem cells. Particulars: donors or patients; background statement; cited from earlier work.
Assay [2] concerns the target T1, Human CXCR4 transfected HEK293 cells (Homo sapiens, UniProt P61073).
T1 construct: expressed in transfected cells; host or cells: HEK293
Nature of the assay: CXCR4 functional calcium assay (calcium flux FLIPR, antagonism of SDF1 response). The conditions noted are these: CXCR4 functional activity, antagonism of SDF1 (EC50 concentration), read-out: CXCR4 fKi. Format: cell-based. Summed up: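 HEK293 cells stably transfected with human CXCR4 were loaded with 2 μM Fluo-4 AM in HBSS containing 2.5 mM probenecid, 0.1% BSA and 10 mM HEPES at pH 7.4 and 37° C. Compound was added first, then SDF1 at its EC50 concentration, and intracellular calcium fluorescence was followed on a FLIPR. Antagonist dose-response curves were fitted.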
(Calcium flux is commonly read through the fluorescence of an indicator in the cells.)

For assay [3], the system named is multipotential mixed hematopoietic progenitors (CFU-GEMM). Nature of the assay: In vivo mobilization of hematopoietic progenitors, colony forming cell assay (CFU-GEMM) from peripheral blood. The conditions noted are these: C57BL/6 mice, one hour after treatment, compared to G-CSF treatment alone. How it is done:
(§1) The study investigated the ability of Example 30 alone and in combination with G-CSF to induce in vivo mobilization of white blood cells in C57BL/6 mice, as well as hematopoietic progenitors from bone marrow to peripheral blood as assessed by the evaluation of the frequency of colony forming cell colonies (CFC). Peripheral blood samples from each test group were collected 1 hour post injection. The white blood cell count (WBC) was determined from the peripheral blood collected for each individual mouse. Clonogenic progenitors of the multipotential (CFU-GEMM) lineages were assessed. Peripheral blood cells were added to MethoCult® 3434 in triplicate cultures for plating (0.5-3×10^5 cells/dish). Cultures were incubated for 8 days at 37° C., 5% CO2 in humidified incubators. CFU-GEMM colony number was enumerated microscopically using an inverted microscope from appropriately plated culture dishes.

For assay [4], the system named is circulating white blood cells (WBC). Nature of the assay: In vivo mobilization of white blood cells (WBC count in peripheral blood). Particulars: C57BL/6 mice. Here is the method:
as §1

The subject of assay [5] is HIV-1IIIB (CXCR4-tropic) virus. Nature of the assay: CXCR4-tropic HIV-1 attachment assay in MAGI-CCR5 cells (β-galactosidase reporter). Type of assay: cell-based. The conditions noted are these: Human immunodeficiency virus 1, MAGI-CCR5, read-out: IC50, inhibition of attachment of CXCR4-tropic HIV-1. How it is done:
Example 30 was tested in an HIV attachment assay, which detects compounds that block HIV-1IIIB (CXCR4-tropic) virus attachment to cells.
The CXCR4-tropic HIV-1 attachment assay uses MAGI-CCR5 cells that naturally express CXCR4 which were engineered to express high levels of CD4 and CCR5 and to contain one copy of the HIV-1 LTR promoter driving expression of the β-galactosidase gene upon HIV-1 Tat transactivation. Cells are incubated with Example 30 and the CXCR4-tropic virus HIV-1IIIB for 3 hours before washing to remove drug and unbound virus. Fresh media is added and the plates are incubated for 48 hours after which antiviral efficacy is measured as the inhibition of β-galactosidase reporter expression and cytotoxicity is monitored by MTS staining.

For the next assay, the system named is HIV-1IIIB (CXCR4-tropic). Nature of the assay: HIV anti-viral assay in MAGI-CCR5 cells (β-galactosidase reporter). Format: cell-based. The conditions noted are these: Human immunodeficiency virus 1, 48 hours with compound and virus, read-out: IC50, HIV-1 antiviral activity. How it is done:
Example 30 was also tested in an HIV antiviral assay that detects compounds that block HIV-1IIIB (CXCR4-tropic) replication via targets in the viral life cycle. The anti-viral assay uses MAGI-CCR5 cells that naturally express CXCR4 which were engineered to express high levels of CD4 and CCR5 and to contain one copy of the HIV-1 LTR promoter driving expression of the β-galactosidase gene upon HIV 1 Tat transactivation. Cells are incubated with Example 30 and the CXCR4-tropic virus HIV-1IIIB for 48 hours after which antiviral efficacy is measured as the inhibition of β-galactosidase reporter expression and cytotoxicity is monitored by MTS staining.

T1 sequence (P61073 whole entry): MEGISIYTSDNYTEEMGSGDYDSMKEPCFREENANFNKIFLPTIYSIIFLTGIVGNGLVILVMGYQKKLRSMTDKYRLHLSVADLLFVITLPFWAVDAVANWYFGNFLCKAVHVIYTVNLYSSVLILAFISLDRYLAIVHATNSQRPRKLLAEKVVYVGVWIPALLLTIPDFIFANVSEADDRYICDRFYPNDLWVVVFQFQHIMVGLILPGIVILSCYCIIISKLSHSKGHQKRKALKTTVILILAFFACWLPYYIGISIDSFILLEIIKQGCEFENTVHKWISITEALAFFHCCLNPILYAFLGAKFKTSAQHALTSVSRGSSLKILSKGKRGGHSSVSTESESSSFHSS

As to `c1cc(CN2CCCNCCNCCCNCC2)ccc1CN1CCCNCCNCCCNCC1` [Mozobil], the “success rate of stem cell mobilisation (sufficient yield)” value in assay [1] is listed as approximately 90%.

For `CC(C)N1CCC(N2CCCN(c3cccc(C(=O)Nc4ccncc4)n3)CC2)CC1` [Example 30, 6-{4-[1-(Propan-2-yl)piperidin-4-yl]-1,4-diazepan-1-yl}-N-(pyridin-4-yl)pyridine-2-carboxamide], in assay [2], the pKi is more than 7.70. The “multipotential mixed hematopoietic progenitors (CFU-GEMM/ml), in combination with G-CSF” value in assay [3] is “significant increase”. In addition, in assay [4] (1 hour after treatment, compared to vehicle control group), the “circulating white blood cells (WBC)” value was “significant increase”. Besides, in assay [4] (after 1 hour, in combination with G-CSF, compared to G-CSF alone), the “circulating white blood cells (WBC), in combination with G-CSF” value is recorded as “significant increase”. Also, the pIC50 in assay [5] was 7.40; in the assay on HIV-1IIIB (CXCR4-tropic) it was 7.52. As to `C[C@@H](N1CCC(N2CCCN(c3cccc(C(=O)Nc4ccncc4)n3)CC2)CC1)C(F)(F)F` [Example 81, N-(Pyridin-4-yl)-6-(4-{1-[(2R)-1,1,1-trifluoropropan-2-yl]piperidin-4-yl}-1,4-diazepan-1-yl)pyridine-2-carboxamide], the pKi in assay [2] is more than 7.70. On the same count and under the same terms, as for `Cc1cc(NC(=O)c2cccc(N3CCCN(C4CCN(C(C)C)CC4)CC3)n2)cc(C)n1` [Example 87, N-(2,6-Dimethylpyridin-4-yl)-6-{4-[1-(propan-2-yl)piperidin-4-yl]-1,4-diazepan-1-yl}pyridine-2-carboxamide], the figure is more than 7.70; as for `CC(C)N1CCC(N2CCCN(c3cccc(-c4ncc(C5CC5)[nH]4)n3)CC2)C(F)C1` (stereo not shown) [Example 212, 1-[6-(4-Cyclopropyl-1H-imidazol-2-yl)pyridin-2-yl]-4-[3-fluoro-1-(propan-2-yl)piperidin-4-yl]-1,4-diazepane], 6.30 to 7.00; as for `CCCN1CCC(N2CCCN(c3cccc(C(=O)NCC4CC4)n3)CC2)CC1` [Example 61, N-(Cyclopropylmethyl)-6-[4-(1-propylpiperidin-4-yl)-1,4-diazepan-1-yl]pyridine-2-carboxamide], 6.30 to 7.00. Still for that read-out and setting: under `CCCC(=O)c1cccc(N2CCCN(C3CCN(C(C)C)CC3)CC2)n1` [Example 219, 1-(6-{4-[1-(Propan-2-yl)piperidin-4-yl]-1,4-diazepan-1-yl}pyridin-2-yl)butan-1-one] stands 6.30 to 7.00; under `CC(C)N1CCC(N2CCCN(c3cccc(C(=O)Nc4ccccc4O)n3)CC2)CC1` [Example 24, N-(2-Hydroxyphenyl)-6-{4-[1-(propan-2-yl)piperidin-4-yl]-1,4-diazepan-1-yl}pyridine-2-carboxamide], 7.00 to 7.70.

For `CC(C)N1CCC(N2CCCN(c3cccc(-c4nnn(C)n4)n3)CC2)CC1` [Example 168, 1-[6-(2-Methyl-2H-1,2,3,4-tetrazol-5-yl)pyridin-2-yl]-4-[1-(propan-2-yl)piperidin-4-yl]-1,4-diazepane], the pKi in assay [2] was 6.30 to 7.00. The same measure, in the same setting: as for `CC(C)N1CCCC(NCCNc2cccc(C(=O)Nc3ccncc3)n2)CC1` (stereo not shown) [Example 234, 6-[(2-{[1-(Propan-2-yl)azepan-4-yl]amino}ethyl)amino]-N-(pyridin-4-yl)pyridine-2-carboxamide], the figure is 6.30 to 7.00; as for `CC(C)N1CCC(N2CCCN(c3cccc(-c4nc5ccccc5o4)n3)CC2)CC1` [Example 152, 2-(6-{4-[1-(Propan-2-yl)piperidin-4-yl]-1,4-diazepan-1-yl}pyridine-2-yl)-1,3-benzoxazole], 6.30 to 7.00.

On to `CC(C)N1CCC(N2CC3CC(C2)N(c2cccc(C(=O)NCC4CC4)n2)C3)CC1` (stereo not shown) [Example 200, N-(Cyclopropylmethyl)-6-{3-[1-(propan-2-yl)piperidin-4-yl]-3,6-diazabicyclo[3.2.1]octan-6-yl}pyridine-2-carboxamide], for which the pKi in assay [2] is 6.00 to 6.30. On the same count and under the same terms, under `CC(C)N1CCC(N2CCCN(c3cccc(-c4nc5cc(F)c(F)cc5[nH]4)n3)CC2)CC1` [Example 145, 5,6-Difluoro-2-(6-{4-[1-(propan-2-yl)piperidin-4-yl]-1,4-diazepan-1-yl}pyridine-2-yl)-1,3-benzodiazole] stands more than 7.70. Still for that read-out and setting: under `CC(C)N1CCC(N2CCCN(c3cccc(-c4nc5ccccc5n4C)n3)CC2)CC1` [Example 140, 1-Methyl-2-(6-{4-[1-(propan-2-yl)piperidin-4-yl]-1,4-diazepan-1-yl}pyridin-2-yl)-1H-1,3-benzodiazole] stands 6.00 to 6.30.
